# Experimental data: patent publication US12577231B2, “Androgen receptor PROTACS” (GlaxoSmithKline Intellectual Property Development Limited, priority 2023, dated 2026)
# Biological target: T1, Androgen Receptor, LNCaP (AR T878A) (Homo sapiens, UniProt P10275, T878A)
# T1 construct: endogenous in cells; host or cells: LNCaP
# T1 sequence (P10275 1-920 T878A): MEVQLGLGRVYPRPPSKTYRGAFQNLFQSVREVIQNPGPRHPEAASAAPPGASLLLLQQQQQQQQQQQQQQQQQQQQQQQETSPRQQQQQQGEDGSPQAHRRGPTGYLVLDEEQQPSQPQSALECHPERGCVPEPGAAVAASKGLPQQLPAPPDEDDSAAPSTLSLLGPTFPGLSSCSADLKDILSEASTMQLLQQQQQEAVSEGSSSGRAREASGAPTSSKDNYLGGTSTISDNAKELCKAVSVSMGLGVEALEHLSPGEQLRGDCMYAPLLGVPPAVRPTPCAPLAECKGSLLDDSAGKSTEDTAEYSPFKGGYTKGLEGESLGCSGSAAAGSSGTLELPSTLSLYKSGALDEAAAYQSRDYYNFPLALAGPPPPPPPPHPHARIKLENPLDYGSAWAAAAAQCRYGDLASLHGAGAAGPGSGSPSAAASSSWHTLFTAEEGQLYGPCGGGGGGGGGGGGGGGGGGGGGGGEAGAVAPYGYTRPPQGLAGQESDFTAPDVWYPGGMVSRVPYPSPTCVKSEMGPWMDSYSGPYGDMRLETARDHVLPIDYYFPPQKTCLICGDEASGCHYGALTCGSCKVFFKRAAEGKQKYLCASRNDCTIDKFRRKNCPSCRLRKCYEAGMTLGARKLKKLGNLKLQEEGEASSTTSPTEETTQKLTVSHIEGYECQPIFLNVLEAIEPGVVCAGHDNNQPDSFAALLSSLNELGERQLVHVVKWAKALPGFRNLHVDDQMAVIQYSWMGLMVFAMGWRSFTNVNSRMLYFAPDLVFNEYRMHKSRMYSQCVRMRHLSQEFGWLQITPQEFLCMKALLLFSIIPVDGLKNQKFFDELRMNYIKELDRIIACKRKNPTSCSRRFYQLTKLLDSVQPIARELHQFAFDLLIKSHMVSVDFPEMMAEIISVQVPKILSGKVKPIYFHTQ
# Assay: Androgen Receptor Degradation-Imaging Assay, LNCaP cell line
# Assay type: cell-based
# Conditions: 16 hours treatment, maximum observed degradation
# Protocol: Degradation of Androgen Receptor (AR) protein in human prostate cancer cell lines (MDA-PCa-2b (AR T878A/L702H), LNCaP (AR T878A), VCaP (AR wild type and amplified) 22RV1 (AR H875Y) and PC3 (AR negative control)) treated with AR PROTACs was quantified using immunofluorescence. Prostate cancer cells were plated (MDA-PCa-2b, and VCaP 16,000 cells/well; LNCaP and 22RV1 32,000 cells/well, and PC3 8,000 cells/well) in an optical bottom 96-well cell culture plate and allowed to attach overnight. The prostate cancer cell lines were treated for 16 hours with a 10-point 3-fold dilution series (dose range=0.02 nM to 333 nM). PC3 is included as an AR negative control and not treated with compound. Cells are fixed and permeabilized with 4% formaldehyde, blocked with 10% goat serum in immunofluorescence (IF) buffer (130 mM NaCl, 7 mM Na2HPO4, 3.5 mM NaH2PO4, 7.7 mM NaN3, 0.1% BSA, 0.2% Triton X, 0.05% Tween 20) prior to overnight incubation with rabbit antibody specific for C terminus of AR (commercially available from RevMaB Biosciences). Following washes with IF buffer, cells were incubated with fluorescent secondary antibody (Goat anti-rabbit Alexa 647; commercially available from Invitrogen) and Hoechst nuclear stain (commercially available from Themo Scientific) prior to quantification of nuclear AR levels via Opera Phenix high-content fluorescent imager using a 40× water objective. Image analysis was performed with Harmony software.
# The averaged nuclear Alexa 647 median fluorescence intensity (MFI) of PC3 cells is subtracted from the nuclear Alexa 647 MFI of PROTAC treated and DMSO control treated cells. % AR remaining is calculated for PROTAC treatments as a percent of the DMSO control (MFI PROTAC treated/MFI DMSO control treated)*100). DC50 and the Dmax values, were obtained from these normalised values fitted with a 4-parameter sigmoidal response curve (Xlfit software). The DC50 is the interpolated concentration of PROTAC corresponding to 50% of the protein being degraded, and the Dmax parameter is the maximum experimentally observed degradation.
row,Dmax,Compound
1,≥ 80%,"CC1(C)[C@H](NC(=O)c2cc(F)c(N3CCC(CN4CCC(n5ncc6c(N7CCC(=O)NC7=O)cccc65)CC4)CC3)c(F)c2)C(C)(C)[C@H]1Oc1ccc(C#N)c2ncccc12 [Example 30, N-((1r,3r)-3-((8-Cyanoquinolin-5-yl)oxy)-2,2,4,4-tetramethylcyclobutyl)-4-(4-((4-(4-(2,4-dioxotetrahydropyrimidin-1(2H)-yl)-1H-indazol-1-yl)piperidin-1-yl)methyl)piperidin-1-yl)-3,5-difluorobenzamide]"
2,≥ 80%,"CC1(C)[C@H](NC(=O)c2ccc(N3CCC(CN4CCC(n5ccc6c(N7CCC(=O)NC7=O)ncnc65)CC4)CC3)c(F)c2)C(C)(C)[C@H]1Oc1ccc(C#N)c2ncccc12 [Example 47, N-((1r,3r)-3-((8-Cyanoquinolin-5-yl)oxy)-2,2,4,4-tetramethylcyclobutyl)-4-(4-((4-(4-(2,4-dioxotetrahydropyrimidin-1(2H)-yl)-7H-pyrrolo[2,3-d]pyrimidin-7-yl)piperidin-1-yl)methyl)piperidin-1-yl)-3-fluorobenzamide]"
3,≥ 80%,"CC1(C)[C@H](NC(=O)c2ccc(N3CCC(CN4CCC(n5ccc6c(N7CCC(=O)NC7=O)cc(F)cc65)CC4)CC3)c(F)c2)C(C)(C)[C@H]1Oc1ccc(C#N)c2ncccc12 [Example 32, N-((1r,3r)-3-((8-Cyanoquinolin-5-yl)oxy)-2,2,4,4-tetramethylcyclobutyl)-4-(4-((4-(4-(2,4-dioxotetrahydropyrimidin-1(2H)-yl)-6-fluoro-1H-indol-1-yl)piperidin-1-yl)methyl)piperidin-1-yl)-3-fluorobenzamide]"
4,≥ 80%,"CC1(C)[C@H](NC(=O)c2ccc(N3CCC(CN4CCC(n5ncc6c(N7CCC(=O)NC7=O)nccc65)CC4)CC3)c(F)c2)C(C)(C)[C@H]1Oc1ccc(C#N)c2ncccc12 [Example 39, N-((1r,3r)-3-((8-Cyanoquinolin-5-yl)oxy)-2,2,4,4-tetramethylcyclobutyl)-4-(4-((4-(4-(2,4-dioxotetrahydropyrimidin-1(2H)-yl)-1H-pyrazolo[4,3-c]pyridin-1-yl)piperidin-1-yl)methyl)piperidin-1-yl)-3-fluorobenzamide]"
5,≥ 80%,"CC1(C)[C@H](NC(=O)c2ccc(N3CCC(CN4CCC(n5ccc6c(N7CCC(=O)NC7=O)ncnc65)CC4)CC3)cc2)C(C)(C)[C@H]1Oc1ccc(C#N)c2ncccc12 [Example 28, N-((1r,3r)-3-((8-Cyanoquinolin-5-yl)oxy)-2,2,4,4-tetramethylcyclobutyl)-4-(4-((4-(4-(2,4-dioxotetrahydropyrimidin-1(2H)-yl)-7H-pyrrolo[2,3-d]pyrimidin-7-yl)piperidin-1-yl)methyl)piperidin-1-yl)benzamide]"
6,≥ 80%,"CC1(C)[C@H](NC(=O)c2ccc(N3CCC(O)(CN4CCC(n5ncc6c(N7CCC(=O)NC7=O)cccc65)CC4)CC3)c(F)c2)C(C)(C)[C@H]1Oc1ccc(C#N)c2ncccc12 [Example 48, N-((1r,3r)-3-((8-Cyanoquinolin-5-yl)oxy)-2,2,4,4-tetramethylcyclobutyl)-4-(4-((4-(4-(2,4-dioxotetrahydropyrimidin-1(2H)-yl)-1H-indazol-1-yl)piperidin-1-yl)methyl)-4-hydroxypiperidin-1-yl)-3-fluorobenzamide]"

# Second part, the molecule before the results:
row,Compound,Dmax
1,"COc1cc(O[C@H]2C(C)(C)[C@H](NC(=O)c3ccc(N4CCC(CN5CCC(n6ccc7c(N8CCC(=O)NC8=O)cccc76)CC5)CC4)cc3)C2(C)C)ccc1C#N [Example 16, N-((1r,3r)-3-(4-Cyano-3-methoxyphenoxy)-2,2,4,4-tetramethylcyclobutyl)-4-(4-((4-(4-(2,4-dioxotetrahydropyrimidin-1(2H)-yl)-1H-indol-1-yl)piperidin-1-yl)methyl)piperidin-1-yl)benzamide]",≥ 80%
2,"COc1cc(O[C@H]2C(C)(C)[C@H](NC(=O)c3ccc(N4CCC(CN5CCC(n6ncc7c(N8CCC(=O)NC8=O)nccc76)CC5)CC4)c(F)c3)C2(C)C)ccc1C#N [Example 20, N-((1r,3r)-3-(4-Cyano-3-methoxyphenoxy)-2,2,4,4-tetramethylcyclobutyl)-4-(4-((4-(4-(2,4-dioxotetrahydropyrimidin-1(2H)-yl)-1H-pyrazolo[4,3-c]pyridin-1-yl)piperidin-1-yl)methyl)piperidin-1-yl)-3-fluorobenzamide]",≥ 80%
3,"CC1(C)[C@H](NC(=O)c2ccc(N3CCC(CN4CCC(n5ncc6c(N7CCC(=O)NC7=O)cccc65)CC4)CC3)c(F)c2)C(C)(C)[C@H]1Oc1ccc(C#N)c2c1CCCO2 [Example 8, N-((1r,3r)-3-((8-Cyanochroman-5-yl)oxy)-2,2,4,4-tetramethylcyclobutyl)-4-(4-((4-(4-(2,4-dioxotetrahydropyrimidin-1(2H)-yl)-1H-indazol-1-yl)piperidin-1-yl)methyl)piperidin-1-yl)-3-fluorobenzamide]",≥ 80%
4,"COc1cc(O[C@H]2C(C)(C)[C@H](NC(=O)c3ccc(N4CCC(CN5CCC(n6ncc7c(N8CCC(=O)NC8=O)cccc76)CC5)CC4)cc3)C2(C)C)ccc1C#N [Example 15, N-((1r,3r)-3-(4-Cyano-3-methoxyphenoxy)-2,2,4,4-tetramethylcyclobutyl)-4-(4-((4-(4-(2,4-dioxotetrahydropyrimidin-1(2H)-yl)-1H-indazol-1-yl)piperidin-1-yl)methyl)piperidin-1-yl)benzamide]",≥ 80%
5,"CC1(C)[C@H](NC(=O)c2ccc(N3CCC(CN4CCC(n5ncc6c(N7CCC(=O)NC7=O)cccc65)CC4)CC3)c(F)c2)C(C)(C)[C@H]1Oc1ccc(C#N)c2ncccc12 [Example 6, N-((1r,3r)-3-((8-Cyanoquinolin-5-yl)oxy)-2,2,4,4-tetramethylcyclobutyl)-4-(4-((4-(4-(2,4-dioxotetrahydropyrimidin-1(2H)-yl)-1H-indazol-1-yl)piperidin-1-yl)methyl)piperidin-1-yl)-3-fluorobenzamide]",≥ 80%
